In patent publication US10829478B2, “5-[3-[piperazin-1-yl]-3-oxo-propyl]-imidazolidine-2,4-dione derivatives as ADAMTS 4 and 5 inhibitors for treating e.g. osteoarthritis” (Galapagos NV, priority 2016, dated 2020) one finds IC50 data, which are given here for 17 molecules.

The target of experiment [1] is human ADAMTS4 (Homo sapiens (Human), UniProt O75173). Kind of experiment: hADAMTS-4 TBIS-1 cleavage assay, Protocol 2. The format is biochemical.
Experiment [2] deals with human ADAMTS-5 (Homo sapiens (Human), UniProt Q9UNA0). As to the kind of experiment: hADAMTS-5 TBIS-1 cleavage assay, Protocol 3. The format is biochemical. Particulars: 90 min at 37° C., read-out: hADAMTS-5 potency IC50.
human ADAMTS-5, sequence (Q9UNA0 262-930): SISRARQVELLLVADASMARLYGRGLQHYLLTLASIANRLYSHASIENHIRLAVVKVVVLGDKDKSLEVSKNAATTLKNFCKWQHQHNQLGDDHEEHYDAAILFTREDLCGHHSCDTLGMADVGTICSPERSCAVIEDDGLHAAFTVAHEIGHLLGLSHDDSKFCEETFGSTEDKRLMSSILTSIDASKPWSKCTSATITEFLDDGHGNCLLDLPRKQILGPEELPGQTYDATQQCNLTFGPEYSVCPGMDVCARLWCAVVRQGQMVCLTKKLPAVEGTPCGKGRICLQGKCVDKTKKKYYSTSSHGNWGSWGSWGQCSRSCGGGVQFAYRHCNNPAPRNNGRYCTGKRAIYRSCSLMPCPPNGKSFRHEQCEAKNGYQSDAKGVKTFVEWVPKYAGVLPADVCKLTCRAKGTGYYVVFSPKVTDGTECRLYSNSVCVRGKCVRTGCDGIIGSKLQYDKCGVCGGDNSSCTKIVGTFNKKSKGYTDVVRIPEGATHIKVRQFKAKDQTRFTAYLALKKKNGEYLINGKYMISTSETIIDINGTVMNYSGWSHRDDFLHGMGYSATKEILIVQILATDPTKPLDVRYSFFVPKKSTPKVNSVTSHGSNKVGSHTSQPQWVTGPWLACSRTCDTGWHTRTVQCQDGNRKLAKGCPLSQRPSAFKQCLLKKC
Experimental: The reaction is initiated by adding to the assay plate TBIS-1 (10 μL, 4.5 μM, Anaspec) in the same buffer.
Finally, the fluorescence is read on the Envision (Perkin Elmer) after an incubation of 90 min at 37° C. (Excitation 485 nm, emission 530).
Experiment [3] concerns the target human ADAMTS6 (Homo sapiens (Human), UniProt Q9UKP5). Kind of experiment: hADAMTS-6 fluorescent based protease assay (520 MMP FRET substrate XII). The format is biochemical. The note with it: 37° C. for 2 h; read-out: hADAMTS-6 potency IC50. The essentials:
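ADAMTS6 (0.73 nM final) in 25 mM Tris pH 8.0, 0.05% CHAPS, 2.5 mM CaCl2 with compound dilution series (top 20 μM, 1/5 steps). Reaction started with 520 MMP FRET Substrate XII, incubated 2 h at 37 °C. Substrate cleavage read by fluorescence ex485/em530; IC50 determined.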

For experiment [4], the target named is human MMP13 (Homo sapiens (Human), UniProt P45452). As to the kind of experiment: hMMP13 assay, Protocol 2 (390 MMP FRET Substrate I, Enzo enzyme). The format is biochemical. Particulars: Protocol 2, human MMP13 (Enzo Life Sciences), read-out: hMMP-13 potency IC50. As for the experimental part: Human MMP13 is preactivated by incubated the enzyme in the same buffer complemented with 1 mM freshly prepared p-Aminophenylmercuric acetate (AMPA) for 1 h at 37° C.

The target in experiment [5] is human MMP14 (Homo sapiens (Human), UniProt P50281). Kind of experiment: hMMP14 assay (390 MMP FRET Substrate I). The format is biochemical. The note with it: human MMP14 (Biomol), read-out: hMMP-14 potency IC50.
Experimental: The basis for the assay is the cleavage of the substrate 390 MMP FRET Substrate I (Anaspec Cat #AS-27076) by human MMP14 (Biomol, Cat #SE-259).
The reaction is initiated by adding to the assay plate 390 MMP FRET Substrate I (10 μL, 2.5 μM) in the same buffer.
Finally, the fluorescence is read on the Envision (Perkin Elmer) after an incubation of 60 min at room temperature (Excitation 485 nm, Emission 530).
The target of experiment [6] is human TACE (Homo sapiens (Human), UniProt P78536). Kind of experiment: biochemical.
human TACE, sequence (P78536 215-671): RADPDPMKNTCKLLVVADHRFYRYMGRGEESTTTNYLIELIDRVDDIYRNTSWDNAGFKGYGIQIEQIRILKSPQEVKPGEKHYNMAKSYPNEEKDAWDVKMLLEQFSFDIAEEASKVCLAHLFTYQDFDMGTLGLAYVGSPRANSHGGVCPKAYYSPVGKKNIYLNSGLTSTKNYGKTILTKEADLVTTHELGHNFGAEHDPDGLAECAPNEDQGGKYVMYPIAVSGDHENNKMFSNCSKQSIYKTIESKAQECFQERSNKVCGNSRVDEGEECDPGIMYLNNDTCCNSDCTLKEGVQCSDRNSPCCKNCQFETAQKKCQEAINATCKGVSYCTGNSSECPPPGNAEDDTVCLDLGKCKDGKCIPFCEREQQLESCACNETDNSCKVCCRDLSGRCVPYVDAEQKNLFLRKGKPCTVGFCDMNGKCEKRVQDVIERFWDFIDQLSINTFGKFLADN
Experimental: Finally, the fluorescence is read on the Envision (Perkin Elmer) after an incubation of 75 min at room temperature (Excitation 485 nm, Emission 530).
[7] abbreviates: Protocol 2, 180 min at 37° C., read-out: ADAMTS4 potency IC50.

pIC50: −log10 of the molar value. Where two headings read alike, the source gives them in different places. Where only a bound is given, the exact number is not on record here.

human ADAMTS6, sequence (Q9UKP5 other isoform, or with tags, fused parts or gaps): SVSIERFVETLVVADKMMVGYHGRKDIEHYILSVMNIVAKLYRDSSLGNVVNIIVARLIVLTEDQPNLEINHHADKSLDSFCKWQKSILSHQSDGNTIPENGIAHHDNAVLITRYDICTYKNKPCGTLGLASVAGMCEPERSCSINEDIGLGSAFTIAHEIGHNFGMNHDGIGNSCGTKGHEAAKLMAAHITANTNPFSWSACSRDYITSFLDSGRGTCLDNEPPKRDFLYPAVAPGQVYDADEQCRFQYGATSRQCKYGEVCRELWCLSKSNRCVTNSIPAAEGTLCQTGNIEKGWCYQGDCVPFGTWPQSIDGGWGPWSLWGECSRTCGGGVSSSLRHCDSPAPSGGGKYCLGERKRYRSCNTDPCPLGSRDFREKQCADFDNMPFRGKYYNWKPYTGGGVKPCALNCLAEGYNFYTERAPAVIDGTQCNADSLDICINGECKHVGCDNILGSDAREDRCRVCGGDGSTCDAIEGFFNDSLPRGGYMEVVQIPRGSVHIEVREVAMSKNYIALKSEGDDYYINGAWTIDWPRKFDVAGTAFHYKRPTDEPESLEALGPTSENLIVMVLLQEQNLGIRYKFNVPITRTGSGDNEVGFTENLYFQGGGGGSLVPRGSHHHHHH
human ADAMTS4, sequence (O75173 213-837): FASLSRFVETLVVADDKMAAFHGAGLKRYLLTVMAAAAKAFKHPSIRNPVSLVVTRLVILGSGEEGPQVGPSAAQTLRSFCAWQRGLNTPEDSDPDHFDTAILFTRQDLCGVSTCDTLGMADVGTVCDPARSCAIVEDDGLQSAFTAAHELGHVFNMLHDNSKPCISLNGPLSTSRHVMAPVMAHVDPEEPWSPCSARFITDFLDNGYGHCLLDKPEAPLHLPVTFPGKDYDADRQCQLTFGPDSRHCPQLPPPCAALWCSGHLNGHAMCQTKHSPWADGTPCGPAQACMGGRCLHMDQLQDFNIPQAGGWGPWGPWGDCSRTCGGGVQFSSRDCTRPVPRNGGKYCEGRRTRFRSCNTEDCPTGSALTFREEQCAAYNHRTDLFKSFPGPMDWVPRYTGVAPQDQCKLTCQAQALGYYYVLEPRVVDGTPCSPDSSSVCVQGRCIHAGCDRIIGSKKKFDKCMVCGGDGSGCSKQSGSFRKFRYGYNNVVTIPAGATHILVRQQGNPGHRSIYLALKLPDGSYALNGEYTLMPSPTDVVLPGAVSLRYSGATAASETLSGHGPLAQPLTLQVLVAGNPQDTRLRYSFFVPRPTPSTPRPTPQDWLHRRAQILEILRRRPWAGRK

By pIC50 is commonly meant the negative decadic logarithm of the IC50, by convention in mol/L. Take `CCc1cc(N2CCN(C(=O)CC[C@@]3(C)NC(=O)NC3=O)C[C@@H]2C)ccc1Cl` [Cpd 75, (5R)-5-[3-[(3 S)-4-(4-chloro-3-ethyl-phenyl)-3-methyl-piperazin-1-yl]-3-oxo-propyl]-5-methyl-imidazolidine-2,4-dione]: the pIC50 is under 7.00 in experiment [1] (setting [7]); 7.00 to 7.30 in experiment [2]; 7.60 to 12.00 in experiment [3]; under 7.00 in experiment [4]; under 7.00 in experiment [5]; under 7.00 in experiment [6].
Regarding `CCOc1cc(N2CCN(C(=O)CC[C@@]3(C)NC(=O)NC3=O)CC2)cc(OC)c1Cl` [Cpd 79, (5R)-5-[3-[4-(4-chloro-3-ethoxy-5-methoxy-phenyl)piperazin-1-yl]-3-oxo-propyl]-5-methyl-imidazolidine-2,4-dione], the pIC50 in experiment [1] (setting [7]) is under 7.00; in experiment [2] it was under 7.00; in experiment [3] it was 7.60 to 12.00; in experiment [4] it was under 7.00; in experiment [5] it was under 7.00; in experiment [6], under 7.00.
Turning to `CCOc1cc(N2CCN(C(=O)CC[C@@]3(C)NC(=O)NC3=O)C[C@@H]2C)cc(OC)c1Cl` [Cpd 80, (5R)-5-[3-[(3 S)-4-(4-chloro-3-ethoxy-5-methoxy-phenyl)-3-methyl-piperazin-1-yl]-3-oxo-propyl]-5-methyl-imidazolidine-2,4-dione], the pIC50 in experiment [1] (setting [7]) was under 7.00; in experiment [2], under 7.00; in experiment [3], 7.60 to 12.00; in experiment [4], under 7.00; in experiment [5] it was under 7.00; in experiment [6] it was under 7.00.
Turning to `COc1cc(N2CCN(C(=O)CC[C@@]3(C)NC(=O)NC3=O)C[C@@H]2C)cc(OC)c1F` [Cpd 89, (5R)-5-[3-[(3 S)-4-(4-fluoro-3,5-dimethoxy-phenyl)-3-methyl-piperazin-1-yl]-3-oxo-propyl]-5-methyl-imidazolidine-2,4-dione], the pIC50 was under 7.00 in experiment [1] (setting [7]); under 7.00 in experiment [2]; 7.60 to 12.00 in experiment [3]; under 7.00 in experiment [4]; under 7.00 in experiment [5]; under 7.00 in experiment [6].
Take `COc1cc(N2CCN(C(=O)CC[C@@]3(C)NC(=O)NC3=O)C[C@@H]2C)cc(Cl)c1Cl` [Cpd 90, (5R)-5-[3-[(3 S)-4-(3,4-dichloro-5-methoxy-phenyl)-3-methyl-piperazin-1-yl]-3-oxo-propyl]-5-methyl-imidazolidine-2,4-dione]: the pIC50 in experiment [1] is 7.30 to 7.60; in experiment [2], 7.60 to 12.00; in experiment [3], 7.60 to 12.00; in experiment [4], under 7.00; in experiment [5], under 7.00; in experiment [6] it was under 7.00.
For `COc1cc(N2CCN(C(=O)CC[C@@]3(C)NC(=O)NC3=O)C[C@@H]2C)ccc1F` [Cpd 93, (5R)-5-[3-[(3 S)-4-(4-fluoro-3-methoxy-phenyl)-3-methyl-piperazin-1-yl]-3-oxo-propyl]-5-methyl-imidazolidine-2,4-dione], the pIC50 in experiment [1] (setting [7]) was under 7.00; in experiment [2], under 7.00; in experiment [3] it was 7.60 to 12.00; in experiment [4], under 7.00; in experiment [5], under 7.00; in experiment [6] it was under 7.00.
In the case of `COc1cc(Cl)cc(N2CCN(C(=O)CC[C@@]3(C)NC(=O)NC3=O)C[C@@H]2C)c1` [Cpd 96, (5R)-5-[3-[(3 S)-4-(3-chloro-5-methoxy-phenyl)-3-methyl-piperazin-1-yl]-3-oxo-propyl]-5-methyl-imidazolidine-2,4-dione], the negative-log IC50 (pIC50) in experiment [1] (setting [7]) was under 7.00; in experiment [2], under 7.00; in experiment [3], 7.60 to 12.00; in experiment [4], under 7.00; in experiment [5], under 7.00; in experiment [6] it was under 7.00.
On to `COc1cc(N2CCN(C(=O)CC[C@@]3(C)NC(=O)NC3=O)C[C@@H]2C)cc(N(C)C)c1Cl` [Cpd 99, (5R)-5-[3-[(3S)-4-[4-chloro-3-(dimethylamino)-5-methoxy-phenyl]-3-methyl-piperazin-1-yl]-3-oxo-propyl]-5-methyl-imidazolidine-2,4-dione], for which the negative logarithm of the IC50 (pIC50) in experiment [1] (setting [7]) was under 7.00; in experiment [2] it was under 7.00; in experiment [3], 7.60 to 12.00; in experiment [4], under 7.00; in experiment [5] it was under 7.00; in experiment [6], under 7.00.
Turning to `COc1cc(N2CCN(C(=O)CC[C@@]3(C)NC(=O)NC3=O)C[C@@H]2C)cc(C)c1Cl` [Cpd 105, (5R)-5-[3-[(3S)-4-(4-chloro-3-methoxy-5-methyl-phenyl)-3-methyl-piperazin-1-yl]-3-oxo-propyl]-5-methyl-imidazolidine-2,4-dione], the pIC50 in experiment [1] was 7.00 to 7.30; in experiment [2] it was under 7.00; in experiment [3] it was 7.60 to 12.00; in experiment [4], under 7.00; in experiment [5] it was under 7.00; in experiment [6], under 7.00.
Consider `CCc1cc(N2CCN(C(=O)CC[C@@]3(C)NC(=O)NC3=O)C[C@@H]2C)cc(OC)c1Cl` [Cpd 106, (5R)-5-[3-[(3 S)-4-(4-chloro-3-ethyl-5-methoxy-phenyl)-3-methyl-piperazin-1-yl]-3-oxo-propyl]-5-methyl-imidazolidine-2,4-dione], for which the pIC50 in experiment [1] (setting [7]) is under 7.00; in experiment [2] it was under 7.00; in experiment [3], 7.60 to 12.00; in experiment [4], under 7.00; in experiment [5], under 7.00; in experiment [6], under 7.00.
As to `CC[C@H]1CN(C(=O)CC[C@@]2(C)NC(=O)NC2=O)CCN1c1ccc(Cl)c(OC)c1` [Cpd 107, (5R)-5-[3-[(3 S)-4-(4-chloro-3-methoxy-phenyl)-3-ethyl-piperazin-1-yl]-3-oxo-propyl]-5-methyl-imidazolidine-2,4-dione], the pIC50 in experiment [1] (setting [7]), in experiment [2], in experiment [3], in experiment [4], in experiment [5] and in experiment [6] was under 7.00 throughout.
Take `COc1cc(N2CCN(C(=O)CC[C@@]3(C)NC(=O)NC3=O)C[C@@H]2C(C)C)ccc1Cl` [Cpd 109, (5R)-5-[3-[(3S)-4-(4-chloro-3-methoxy-phenyl)-3-isopropyl-piperazin-1-yl]-3-oxo-propyl]-5-methyl-imidazolidine-2,4-dione]: the pIC50 in experiment [1] (setting [7]), in experiment [2], in experiment [3], in experiment [4], in experiment [5] and in experiment [6] was under 7.00 in each case.
Take `COc1cc(N2CCN(C(=O)CC[C@@]3(C)NC(=O)NC3=O)CC2)cc(C)c1Cl` [Cpd 112, (5R)-5-[3-[4-(4-chloro-3-methoxy-5-methyl-phenyl)piperazin-1-yl]-3-oxo-propyl]-5-methyl-imidazolidine-2,4-dione]: the negative logarithm of the IC50 (pIC50) in experiment [1] was 7.00 to 7.30; in experiment [2], under 7.00; in experiment [3] it was 7.60 to 12.00; in experiment [4], under 7.00; in experiment [5], under 7.00; in experiment [6], under 7.00.
On to `CCc1cc(N2CCN(C(=O)CC[C@@]3(C)NC(=O)NC3=O)CC2)cc(OC)c1Cl` [Cpd 115, (5R)-5-[3-[4-(4-chloro-3-ethyl-5-methoxy-phenyl)piperazin-1-yl]-3-oxo-propyl]-5-methyl-imidazolidine-2,4-dione], for which the pIC50 is under 7.00 in experiment [1] (setting [7]); under 7.00 in experiment [2]; 7.60 to 12.00 in experiment [3]; under 7.00 in experiment [4]; under 7.00 in experiment [5]; under 7.00 in experiment [6].
For `COc1cc(N2CCN(C(=O)CC[C@@]3(C)NC(=O)NC3=O)CC2C(F)(F)F)ccc1Cl` (stereo partly drawn) [Cpd 118, (5R)-5-[3-[4-(4-chloro-3-methoxy-phenyl)-3-(trifluoromethyl)piperazin-1-yl]-3-oxo-propyl]-5-methyl-imidazolidine-2,4-dione], the pIC50 in experiment [1] (setting [7]) is under 7.00; in experiment [2], under 7.00; in experiment [3] it was 7.60 to 12.00; in experiment [4], under 7.00; in experiment [5] it was under 7.00; in experiment [6], under 7.00.
As to `COc1cc(N2CCN(C(=O)CC[C@@]3(C)NC(=O)NC3=O)C[C@@H]2C)cc(F)c1Cl` [Cpd 119, (5R)-5-[3-[(3 S)-4-(4-chloro-3-fluoro-5-methoxy-phenyl)-3-methyl-piperazin-1-yl]-3-oxo-propyl]-5-methyl-imidazolidine-2,4-dione], the negative-log IC50 (pIC50) in experiment [1] (setting [7]) was under 7.00; in experiment [2], 7.60 to 12.00; in experiment [3] it was 7.60 to 12.00; in experiment [4], under 7.00; in experiment [5], under 7.00; in experiment [6] it was under 7.00.
Regarding `COc1cc(N2CCN(C(=O)[C@@H](C)C[C@@]3(C)NC(=O)NC3=O)CC2)cc(F)c1Cl` [Cpd 122, (5R)-5-[(2S)-3-[4-(4-chloro-3-fluoro-5-methoxy-phenyl)piperazin-1-yl]-2-methyl-3-oxo-propyl]-5-methyl-imidazolidine-2,4-dione], the pIC50 in experiment [1] is 7.00 to 7.30; in experiment [2], 7.60 to 12.00; in experiment [3], 7.60 to 12.00; in experiment [4], under 7.00; in experiment [5] it was under 7.00; in experiment [6] it was under 7.00.
